Data: ChEMBL document CHEMBL1201862, “PubChem BioAssay data set” (2004)
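Five compound concentrations were applied to cells in 96-well plates for 48 hours; endpoints were derived by simple linear interpolation of the resulting dose-response curve. At the GI50, growth is halved.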 Activity calls are given as the source filed them. Cut-off read from the data, not from the text of the source: active = GI50 up to about 1.1 µM and inactive = higher.

How the values were obtained:
Test in all cases: NCI tumour cell line growth inhibition, 48 h
SNB-75 = test system: SNB-75
RPMI-8226 = test system: RPMI-8226
CCRF-CEM = test system: CCRF-CEM
SNB-19 = test system: SNB-19
SF-295 = test system: SF-295
SK-MEL-28 = test system: SK-MEL-28
HCC 2998 = test system: HCC 2998
SW-620 = test system: SW-620
SK-OV-3 = test system: SK-OV-3
UACC-62 = test system: UACC-62
MOLT-4 = test system: MOLT-4
U-251 = test system: U-251
Malme-3M = test system: Malme-3M
NCI/ADR-RES = test system: NCI/ADR-RES
NCI-H226 = test system: NCI-H226
M14 = test system: M14
HOP-62 = test system: HOP-62
MCF7 = test system: MCF7
A549 = test system: A549
NCI-H522 = test system: NCI-H522

Structure (SMILES) | GI50 (SNB-75) | GI50 (RPMI-8226) | GI50 (CCRF-CEM) | GI50 (SNB-19) | GI50 (SF-295) | GI50 (SK-MEL-28) | GI50 (HCC 2998) | GI50 (SW-620) | GI50 (SK-OV-3) | GI50 (UACC-62) | GI50 (MOLT-4) | GI50 (U-251) | GI50 (Malme-3M) | GI50 (NCI/ADR-RES) | GI50 (NCI-H226) | GI50 (M14) | GI50 (HOP-62) | GI50 (MCF7) | GI50 (A549) | GI50 (NCI-H522)
COC(=O)c1ccc(C)cc1C1CN=NC12Cc1cc(C)ccc1C2=O (stereo not given) | 8.61 µM (inactive) | 16.4 µM (inactive) | 15.9 µM (inactive) | 18.8 µM (inactive) | 7.28 µM (inactive) | 23.2 µM (inactive) | 23.8 µM (inactive) | 5.35 µM (inactive) | 23.2 µM (inactive) | 8 µM (inactive) | 10.3 µM (inactive) | 11.7 µM (inactive) | 13.2 µM (inactive) | 6.64 µM (inactive) | 21.2 µM (inactive) | 9.31 µM (inactive) | 20.1 µM (inactive) | 3.61 µM (inactive) | 25.4 µM (inactive) | 5.06 µM (inactive)
C[C@H]1CCC/C=C/[C@@H]2C[C@H](OC(=O)CN(C)C)C[C@H]2[C@H](O)/C=C/C(=O)O1 | 0.155 µM (active) | 0.303 µM (active) | 0.284 µM (active) | 0.319 µM (active) | 0.165 µM (active) | 0.138 µM (active) | 0.0612 µM (active) | 0.156 µM (active) | 0.0586 µM (active) | 0.108 µM (active) | 0.187 µM (active) | 0.254 µM (active) | 0.0738 µM (active) | 0.0139 µM (active) | 0.0288 µM (active) | 0.0778 µM (active) | 0.21 µM (active) | 0.187 µM (active) | 0.286 µM (active) | 0.425 µM (active)
Cc1cc(-c2nc3ccc(F)cc3s2)ccc1NC(=O)[C@H](C)N | 11.8 µM (inactive) | 3.11 µM (inactive) | 1.64 µM (inactive) | 14.3 µM (inactive) | 9.71 µM (inactive) | 15.4 µM (inactive) | 0.428 µM (active) | 3.83 µM (inactive) | 13.6 µM (inactive) | 1.88 µM (inactive) | 2 µM (inactive) | 3.48 µM (inactive) | 21.3 µM (inactive) | 13.2 µM (inactive) | 2.7 µM (inactive) | 1.95 µM (inactive) | 8.22 µM (inactive) | < 0.0186 µM (active) | 5.83 µM (inactive) | 7.74 µM (inactive)
CC1(C)CC(=O)C2=C(C1)C(c1ccccc1Cl)C1C(=O)CC(C)(C)CC1(O)O2 (stereo not given) | > 78.3 µM (inactive) | > 84.1 µM (inactive) | 26.8 µM (inactive) | > 100 µM (inactive) | > 31.6 µM (inactive) | > 100 µM (inactive) | > 100 µM (inactive) | 43.7 µM (inactive) | > 100 µM (inactive) | > 64.7 µM (inactive) | 74.5 µM (inactive) | > 100 µM (inactive) | > 100 µM (inactive) | > 89.1 µM (inactive) | > 100 µM (inactive) | 98.2 µM (inactive) | > 100 µM (inactive) | 37.3 µM (inactive) | > 100 µM (inactive) | > 100 µM (inactive)
CC(C)C(NC(=O)C(Cc1ccccc1)NC(=O)[C@H]1CCC[C@H]1NC(=O)C(N)Cc1ccc(O)cc1)C(N)=O (stereo not given in full) | > 100 µM (inactive) | > 100 µM (inactive) | > 100 µM (inactive) | > 100 µM (inactive) | > 100 µM (inactive) | > 100 µM (inactive) | > 100 µM (inactive) | > 100 µM (inactive) | > 100 µM (inactive) | > 100 µM (inactive) | > 100 µM (inactive) | > 100 µM (inactive) | > 100 µM (inactive) | > 100 µM (inactive) | > 100 µM (inactive) | > 100 µM (inactive) | > 100 µM (inactive) | > 100 µM (inactive) | > 100 µM (inactive) | > 100 µM (inactive)
